The values that follow come from PubChem BioAssay AID1996.

Each structure is given as a SMILES string. Converted amounts (≈) assume the structure as drawn. Where only a bound is given, the exact number is not on record here.

The conditions of this series: buffer; pH 7.4; 200.0 µM.
`CC(=O)c1ccc(-n2c(CCC(=O)O)ccc2-c2ccccc2)cc1` came in with a solubility (kinetic) of 41.5 µg/mL (≈ 124 µM).

Turning to `Cc1ccc(CSc2[nH]c(=O)ncc2C)cc1`, the solubility (kinetic) came to 11 µg/mL (≈ 44.7 µM).

As to `Cc1c(C(=O)O)sc2nc(/C=C/c3cccc(F)c3)[nH]c(=O)c12`, the solubility (kinetic) stood at 41.3 µg/mL (≈ 125 µM).

`COC(=O)c1sccc1NC(=O)c1ccccc1C(=O)O`: the kinetic solubility worked out at 39.8 µg/mL (≈ 130 µM).

`C/C(=C\C(=O)Nc1cscc1C)C(=O)O` showed a kinetic solubility of 28.2 µg/mL (≈ 125 µM).

For `O=C(COC(=O)c1ccc(Cl)cc1[N+](=O)[O-])NCc1ccco1`, the solubility (kinetic) is over 50.8 µg/mL.

In the case of `CC(=O)c1ccc(N2CCN(CC(O)c3ccccc3)CC2)cc1` (centres undefined), the kinetic solubility was over 48.7 µg/mL.

`Cc1cnc(=O)[nH]c1SCc1ccc(C(F)(F)F)cc1`: the kinetic solubility was 5.1 µg/mL (≈ 17 µM).

`CNC(=O)COc1ccc2oc3c(c2c1)CCCC3` returned a kinetic solubility of 31 µg/mL (≈ 120 µM). This solubility kinetic lies about 6.1-fold higher than the previous one.

As to `COc1cc(C(=O)O)ccc1OCc1ccncc1`, the kinetic solubility was over 38.9 µg/mL.

Turning to `COc1ccccc1NC(=O)CN1C(=O)COc2ccc(C)cc21`, the kinetic solubility was found to be 16.2 µg/mL (≈ 49.6 µM).

On to `O=c1c2[nH]c3ccc(Br)cc3c2ncn1Cc1ccncc1`, for which the solubility (kinetic) turned out to be 0.4 µg/mL (≈ 1.13 µM).

As for `COc1cc2cc(NC(C)=O)cc(NCc3ccccc3)c2cc1OC`, the solubility (kinetic) came to 4.2 µg/mL (≈ 12 µM).

The compound `O=C(c1ccco1)N1CCn2cccc2C1c1ccccc1` (centres undefined) came in with a solubility (kinetic) of 42 µg/mL (≈ 144 µM). Against the preceding compound, the solubility kinetic is about 10-fold higher.

Compound `Cc1ccnc(NCc2c(O)ccc3ccccc23)c1` had a solubility (kinetic) of 9.2 µg/mL (≈ 34.8 µM).

Compound `Cc1csc(=O)n1CC(=O)Nc1ccc(C(C)C)cc1` displayed a solubility (kinetic) of 29.4 µg/mL (≈ 101 µM).

`CCOC(=O)c1ccc(N2C(=O)C=C(N3CCOCC3)C2=O)cc1`: the kinetic solubility was over 49.6 µg/mL.

In the case of `CCOC(=O)c1sc(/N=C/c2c(O)ccc3ccccc23)cc1C`, the solubility (kinetic) was 9.8 µg/mL (≈ 28.9 µM).

For `CCOc1ccc(NC(=O)c2ccccc2NC(=O)CNC2CCCC(C)C2C)cc1` (centres undefined), the solubility (kinetic) came out at 2.2 µg/mL (≈ 5.19 µM).

As for `CN(CCCC(=O)N1CCN(c2ncccn2)CC1)S(=O)(=O)c1ccc(F)cc1`, the solubility (kinetic) was over 63.2 µg/mL.

With `O=C(c1cccc(S(=O)(=O)NCc2ccccc2)c1)N1CCN(c2ccccc2)CC1`, the kinetic solubility stood at 2.4 µg/mL (≈ 5.51 µM).

The compound `CN1CCCN(C(=O)c2ccc(Cl)s2)CC1` displayed a kinetic solubility of over 38.8 µg/mL.

`O=C(CCN1CCN(CCO)CC1)Nc1cccc(Br)c1` had a kinetic solubility of over 53.4 µg/mL.

`CC(C)n1c(N2CCCC2)nc2c1c(=O)[nH]c(=O)n2C` had a solubility (kinetic) of over 41.6 µg/mL.

In turn, `OC(C[n+]1ccccc1)c1ccccc1.[Br-]` (centres undefined) gave a kinetic solubility of over 42 µg/mL.

`O=C(NC(=O)c1ccc(Cl)cc1)Nc1ccc(-c2cnco2)cc1` yielded a solubility (kinetic) of 2.7 µg/mL (≈ 7.9 µM).

With `COC(=O)c1c(-c2ccccc2)c[nH]c1C`, the kinetic solubility was 32 µg/mL (≈ 149 µM).

As to `Cc1ccc(NC(=O)CCl)c(C)c1`, the solubility (kinetic) is over 29.7 µg/mL.

`O=C(Nc1nccs1)c1cc(Cl)nc2ccccc12` returned a kinetic solubility of 5.2 µg/mL (≈ 17.9 µM).

Consider `Cc1sc2ncnc(Sc3ccccc3C(=O)O)c2c1C`, for which the kinetic solubility came out at 46.9 µg/mL (≈ 148 µM). Against the preceding compound, the solubility kinetic is about 9-fold higher.

Regarding `COc1ccc(C(=O)C(C)OC(=O)CN2C(=O)c3ccccc3C2=O)cc1` (centres undefined), the solubility (kinetic) was over 55.1 µg/mL.

The compound `O=C(Nc1cccnc1)NC1CCCCC1` displayed a solubility (kinetic) of over 32.9 µg/mL.

Compound `COc1cccc(OCC(O)CNC2CCCC2)c1.Cl` (centres undefined) had a kinetic solubility of over 45.3 µg/mL.

Turning to `CCCn1c(SCC(=O)Nc2ccc(Cl)cc2)n[nH]c1=O`, the kinetic solubility was over 49 µg/mL.

The compound `CCN(CC)CCCNc1nc(C)cc(COC)c1C#N` had a solubility (kinetic) of over 43.6 µg/mL.

Compound `Cc1c(C(=O)OCC(=O)Nc2ccc(C(=O)N(C)C)cc2)oc2ccccc12` had a solubility (kinetic) of 6.6 µg/mL (≈ 17.4 µM).

For the compound `COC(=O)c1sccc1NC(=O)Nc1ccc(C(C)=O)cc1`, the kinetic solubility came to 8.4 µg/mL (≈ 26.4 µM).

In the case of `Cc1ccc(NC(=O)C/C(N)=N/OC(=O)c2ccccc2)cc1`, the solubility (kinetic) is 2.2 µg/mL (≈ 7.07 µM).

In turn, `Cc1onc(-c2ccccc2)c1CNS(=O)(=O)c1cccc(Cl)c1` returned a kinetic solubility of 36.5 µg/mL (≈ 101 µM).

Take `COc1cc(CNC(C)C23CC4CC(CC(C4)C2)C3)cc(OC)c1OC.Cl` (centres undefined): the solubility (kinetic) is over 59.4 µg/mL.

In turn, `CCCS(=O)(=O)Nc1cccc(-c2nc3cccnc3s2)c1` returned a kinetic solubility of 2.4 µg/mL (≈ 7.2 µM).

On to `COc1ccccc1NC(=O)c1ccc(NC(=O)C2CC2C)cc1` (centres undefined), for which the solubility (kinetic) was 10.3 µg/mL (≈ 31.8 µM).

Take `O=C(NC(=S)Nc1ccc2c(c1)OCCO2)c1ccco1`: the kinetic solubility came out at 40.3 µg/mL (≈ 132 µM).

Take `O=C(CCCc1ccccc1)NCCc1ccc(F)cc1`: the kinetic solubility was 39.6 µg/mL (≈ 139 µM).

Consider `Cc1ccc(C(=O)C[n+]2ccccc2C)cc1[N+](=O)[O-].[Br-]`, for which the solubility (kinetic) is 48.3 µg/mL.

In the case of `CCCn1c(SCC(=O)N2CCOCC2)nnc1-c1ccncc1`, the kinetic solubility was over 52.1 µg/mL.

`Cl.OCCN(CC#CC(O)(c1ccccc1)C1CCCCC1)CCO` (centres undefined) registered a solubility (kinetic) of 53 µg/mL.

Turning to `COc1cc2c(cc1OC)C(c1ccccc1N)=NCC2`, the kinetic solubility was over 42.4 µg/mL.

The compound `COc1ccc(S(=O)(=O)n2cnc3ccccc32)cc1.Cl` had a solubility (kinetic) of over 48.7 µg/mL.

Regarding `CC1=CCC(C(=O)O)C(C(=O)Nc2ccc(-c3nc4ccc(C)cc4s3)cc2)C1` (centres undefined), the kinetic solubility was over 61 µg/mL.

In the case of `O=C(CC1SC(N2CCOCC2)=NC1=O)Nc1ccc(Cl)c(C(F)(F)F)c1` (centres undefined), the solubility (kinetic) was 4.4 µg/mL (≈ 10.4 µM).

For the compound `C=CCn1c(N)cc(=O)nc1SCC(=O)Nc1ccccc1C(N)=O`, the solubility (kinetic) came to 49.9 µg/mL (≈ 139 µM).

In turn, `N#Cc1ccccc1NC(=O)COC(=O)c1c[nH]c2ccccc12` returned a kinetic solubility of 4.4 µg/mL (≈ 13.8 µM).

`COc1ccc(CCC(=O)NCc2ccc3c(c2)OCO3)cc1` displayed a kinetic solubility of 23.1 µg/mL (≈ 73.7 µM). Against the preceding compound, the solubility kinetic is about 5.2-fold higher.

Turning to `CCC(=O)NCc1ccc2[nH]c(C)cc2c1`, the kinetic solubility came to 32.3 µg/mL (≈ 149 µM).

For `CCCC(=O)N1CCN(c2nc3ccc(CC)cc3s2)CC1`, the solubility (kinetic) was found to be 13.5 µg/mL (≈ 42.5 µM).

`O=C(NC1CCCCCCC1)c1cc([N+](=O)[O-])ccc1Cl` yielded a kinetic solubility of 8.5 µg/mL (≈ 27.4 µM).

As for `CN1C(=O)NC(c2cccc([N+](=O)[O-])c2)C2=C1CCCC2=O` (centres undefined), the solubility (kinetic) is over 45.2 µg/mL.

Take `COc1ccccc1NC(=O)C1CCN(C(=O)c2ccco2)CC1`: the solubility (kinetic) was over 49.3 µg/mL.

Turning to `CC1c2cc3c(cc2CCN1CC(=O)Nc1ccccc1)OCCCO3` (centres undefined), the kinetic solubility was 3.9 µg/mL (≈ 11.1 µM).

Compound `Cc1ccc(/C=C/C(=O)Nc2ccc(S(N)(=O)=O)cc2)o1` yielded a solubility (kinetic) of over 46 µg/mL.

Take `CCN1CCN(Cc2cc(=O)oc3ccc(C)cc23)CC1`: the kinetic solubility was over 43 µg/mL.

Consider `Cc1cc(C)n(CC(=O)NC2CCCCC2C)c(=O)c1C#N` (centres undefined), for which the kinetic solubility is 16.7 µg/mL (≈ 55.4 µM).

For `CSc1ccccc1C(=O)NC(C)c1ccc(-n2ccnc2)cc1` (centres undefined), the kinetic solubility was over 50.6 µg/mL.

`Cc1oc(/N=C/c2ccccc2)c(C#N)c1C` showed a kinetic solubility of 9.2 µg/mL (≈ 41 µM).

`Cc1nc2cc(NS(=O)(=O)c3cccc(F)c3)ccc2s1` showed a kinetic solubility of over 48.4 µg/mL.

The compound `CC(C)CC(NC(=O)OC(C)(C)C)C(=O)O.O` (centres undefined) showed a solubility (kinetic) of over 37.4 µg/mL.

For the compound `O=C1c2ccccc2NC(c2ccccc2)N1Cc1ccccc1` (centres undefined), the kinetic solubility was determined as 7.9 µg/mL (≈ 25.1 µM).

Regarding `Cc1ccc(F)c(N=Cc2c(O)c3ccccc3oc2=O)c1`, the solubility (kinetic) is 1.8 µg/mL (≈ 6.05 µM).

Turning to `O=C(Nc1ccccc1C(=O)Nc1ccncc1)c1ccccc1`, the solubility (kinetic) amounted to 6 µg/mL (≈ 18.9 µM).

Compound `Cc1nccn1-c1c([N+](=O)[O-])c(=O)n(C)c2ccccc12` showed a solubility (kinetic) of over 42.6 µg/mL.

`CN1CCCC(C(=O)c2ccc(-c3ccccc3)cc2)C1` (centres undefined) showed a solubility (kinetic) of 27.3 µg/mL (≈ 97.7 µM).

In turn, `O=c1[nH]c(Cc2cccc(C(F)(F)F)c2)nc2ccccc12` showed a solubility (kinetic) of under 0.3 µg/mL.

As for `CCCCn1c(N)c(N(CC)C(=O)c2cccc(F)c2)c(=O)[nH]c1=O`, the kinetic solubility is 52.1 µg/mL (≈ 150 µM).
